# pIC50: −log10 of the molar value. Calls of active or inactive are those of the source. No cut-off for these calls is given here.
# Key:
# [1] = target: T1, Stimulator of interferon genes protein (Homo sapiens, UniProt Q86WV6); assay: Induction of STING M155 mutant degradation in human THP-1 cells incubated for 24 hrs by Western blotting analysis; type: cell-based
# Target sequence in this assay (Q86WV6 whole entry, looked up, stated change not applied): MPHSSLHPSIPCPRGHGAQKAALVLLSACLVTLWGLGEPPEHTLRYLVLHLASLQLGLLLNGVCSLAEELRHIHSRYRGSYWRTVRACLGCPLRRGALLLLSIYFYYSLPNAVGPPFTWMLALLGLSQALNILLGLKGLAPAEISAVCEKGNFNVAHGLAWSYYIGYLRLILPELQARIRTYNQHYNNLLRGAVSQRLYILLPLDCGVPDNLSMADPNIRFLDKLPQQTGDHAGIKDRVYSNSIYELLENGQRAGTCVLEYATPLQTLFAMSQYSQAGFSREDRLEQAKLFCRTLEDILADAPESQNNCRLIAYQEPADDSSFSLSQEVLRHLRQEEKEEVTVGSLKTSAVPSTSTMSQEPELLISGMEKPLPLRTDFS
# [2] = target: T2, Stimulator of interferon genes protein (Mus musculus) (UniProt Q3TBT3); assay: In vivo inhibition of cGAMP-induced STING activation in autoimmune disease female C57BL/6 mouse model assessed as decrease in cGAMP-induced serum CXCL-10 level at 10 mg/kg, sc pretreated with compound for 2 hrs followed by cGAMP addition and measured after 3 hrs by ELISA; type: functional, organism-based
# T2 sequence (whole entry): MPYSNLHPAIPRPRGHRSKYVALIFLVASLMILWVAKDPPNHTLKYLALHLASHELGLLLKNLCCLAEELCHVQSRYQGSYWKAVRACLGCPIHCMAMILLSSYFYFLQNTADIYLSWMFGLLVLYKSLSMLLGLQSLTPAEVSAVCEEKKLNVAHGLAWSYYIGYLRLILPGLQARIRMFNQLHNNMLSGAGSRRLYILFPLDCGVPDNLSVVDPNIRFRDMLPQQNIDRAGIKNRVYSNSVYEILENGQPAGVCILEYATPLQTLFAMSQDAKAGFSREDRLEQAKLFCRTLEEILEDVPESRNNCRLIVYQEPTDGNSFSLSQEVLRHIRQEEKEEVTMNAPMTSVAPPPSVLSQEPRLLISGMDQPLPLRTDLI
# [3] = Apparent oral clearance in mouse at 20 mg/kg, po by LC-MS/MS analysis; type: ADME, organism-based; settings: in vivo
# [4] = target: T2, Stimulator of interferon genes protein (Mus musculus); assay: In vivo inhibition of cGAMP-induced STING activation in autoimmune disease female C57BL/6 mouse model assessed as decrease in cGAMP-induced serum INF-beta level at 20 mg/kg, po pretreated with compound for 2 hrs followed by cGAMP addition and measured after 3 hrs by ELISA; type: functional, organism-based
# [5] = target: T2, Stimulator of interferon genes protein (Mus musculus); assay: Inhibition of STING in mouse BMDM cells assessed as inhibition of cGAMP-induced IFN-beta release at 0.05 to 0.5 uM pretreated with compound for 6 hrs followed by cGAMP addition and measured after 18 hrs by ELISA; type: cell-based; settings: dose 0.05-0.5 µM, time 24.0 hrs
# [6] = target: T1, Stimulator of interferon genes protein; assay: Inhibition of STING in human THP-1 cells assessed as inhibition of cGAMP-induced IFN-beta release at 0.05 to 0.5 uM pretreated with compound for 6 hrs followed by cGAMP addition and measured after 18 hrs by ELISA; type: cell-based; settings: dose 0.05-0.5 µM, time 24.0 hrs
# Target sequence in this assay (Q86WV6 whole entry): as the sequence (Q86WV6 whole entry, looked up, stated change not applied) above
# [7] = target: T2, Stimulator of interferon genes protein (Mus musculus); assay: Inhibition of STING in mouse BMDM cells assessed as inhibition of LPS-induced IFN-beta release at 0.05 to 0.5 uM pretreated with compound for 6 hrs followed by LPS addition and measured after 18 hrs by ELISA; type: cell-based; settings: dose 0.05-0.5 µM, time 24.0 hrs
# [8] = target: T3, Stimulator of interferon genes protein (Homo sapiens, UniProt Q86WV6, G230A/R293Q/R71H); assay: Inhibition of cGAMP-induced STING HAQ mutant transfected in human THP1-Blue ISG cells preincubated with compound for 6 hrs followed by cGAMP addition and measured after 18 hrs by QUANTI-Blue based microplate reader analysis; type: cell-based
# [9] = target: T2, Stimulator of interferon genes protein (Mus musculus); assay: In vivo inhibition of cGAMP-induced STING activation in autoimmune disease female C57BL/6 mouse model assessed as decrease in cGAMP-induced serum CXCL-10 level at 20 mg/kg, po pretreated with compound for 2 hrs followed by cGAMP addition and measured after 3 hrs by ELISA; type: functional, organism-based
# [10] = target: T3, Stimulator of interferon genes protein; assay: Inhibition of diABZI-induced STING HAQ mutant transfected in human THP1-Blue ISG cells preincubated with compound for 6 hrs followed by diABZI addition and measured after 18 hrs by QUANTI-Blue based microplate reader analysis; type: cell-based
# [11] = target: T1, Stimulator of interferon genes protein; assay: Inhibition of STING activation in human THP1-Blue ISG cells assessed as decrease in cGAMP-induced IRF3 phosphorylation at 0.1 to 1 uM preincubated with compound for 6 hrs followed by cGAMP addition and measured after 3 hrs by Western blotting analysis; type: cell-based; settings: dose 0.1-1 µM, time 9.0 hrs
# Target sequence in this assay (Q86WV6 whole entry): as the sequence (Q86WV6 whole entry, looked up, stated change not applied) above
# [12] = target: T2, Stimulator of interferon genes protein (Mus musculus); assay: Inhibition of STING in mouse BMDM cells assessed as inhibition of cGAMP-induced CXCL-10 release at 0.05 to 0.5 uM pretreated with compound for 6 hrs followed by cGAMP addition and measured after 18 hrs by ELISA; type: cell-based; settings: dose 0.05-0.5 µM, time 24.0 hrs
# [13] = target: T1, Stimulator of interferon genes protein; assay: Inhibition of STING activation in human THP1-Blue ISG cells assessed as inhibition of c-GAMP-induced STING oligomerization at 0.1 to 1 uM preincubated with compound for 6 hrs followed by cGAMP addition and measured after 3 hrs by Western blotting analysis; type: cell-based; settings: dose 0.1-1 µM, time 9.0 hrs
# Target sequence in this assay (Q86WV6 whole entry): as the sequence (Q86WV6 whole entry, looked up, stated change not applied) above
# [14] = test system: Stimulator of interferon genes protein (Homo sapiens), Q86WV6 [UNDEFINED MUTATION]; assay: Induction of STING M155 mutant degradation in human THP-1 cells at 1 uM preincubated with MLN4924 for 2 hrs followed by compound addition and measured after 22 hrs by Western blotting analysis; type: cell-based
# [15] = test system: Stimulator of interferon genes protein (Homo sapiens), Q86WV6 [UNDEFINED MUTATION]; assay: Induction of STING M155 mutant degradation in human THP-1 cells by measuring maximum efficacy at 0.01 to 10 uM incubated for 24 hrs by Western blotting analysis relative to control; type: cell-based; settings: dose 0.01-10 µM
# [16] = Cytotoxicity against human THP1-Blue ISG cells assessed as inhibition of cell growth at 10 uM incubated for 24 hrs by MTS assay relative to control; type: toxicity, cell-based
# [17] = Metabolic stability in human plasma assessed as half life in presence of NADPH by LC-MS/MS analysis; type: ADME, cell-free
# [18] = target: T2, Stimulator of interferon genes protein (Mus musculus); assay: In vivo inhibition of cGAMP-induced STING activation in autoimmune disease female C57BL/6 mouse model assessed as decrease in cGAMP-induced serum INF-beta level at 10 mg/kg, sc pretreated with compound for 2 hrs followed by cGAMP addition and measured after 3 hrs by ELISA; type: functional, organism-based
# [19] = target: T1, Stimulator of interferon genes protein; assay: Inhibition of STING activation in human THP1-Blue ISG cells assessed as reduction in STING dimer level at 0.1 to 1 uM incubated for 9 hrs by Western blotting analysis; type: cell-based; settings: dose 0.1-1 µM
# Target sequence in this assay (Q86WV6 whole entry): as the sequence (Q86WV6 whole entry, looked up, stated change not applied) above
# [20] = target: T1, Stimulator of interferon genes protein; assay: Inhibition of STING activation in human THP1-Blue ISG cells assessed as decrease in cGAMP-induced STING phosphorylation at 0.1 to 1 uM preincubated with compound for 6 hrs followed by cGAMP addition and measured after 3 hrs by Western blotting analysis; type: cell-based; settings: dose 0.1-1 µM, time 9.0 hrs
# Target sequence in this assay (Q86WV6 whole entry): as the sequence (Q86WV6 whole entry, looked up, stated change not applied) above
# [21] = AUC in mouse at 20 mg/kg, po by LC-MS/MS analysis; type: ADME, organism-based; settings: in vivo
# [22] = test system: Stimulator of interferon genes protein (Homo sapiens), Q86WV6 [UNDEFINED MUTATION]; assay: Induction of STING M155 mutant degradation in human THP-1 cells at 1 uM preincubated with MG132 for 2 hrs followed by compound addition and measured after 22 hrs by Western blotting analysis; type: cell-based
# [23] = test system: Stimulator of interferon genes protein (Homo sapiens), Q86WV6 [UNDEFINED MUTATION]; assay: Induction of STING S154 mutant degradation in human THP-1 cells at 1 uM incubated for 12 hrs by Western blotting analysis; type: cell-based
# [24] = Metabolic stability in human liver microsomes assessed as half life at 10 uM in presence of NADPH by LC-MS/MS analysis; type: ADME, Microsome
# [25] = Half life in mouse at 20 mg/kg, po by LC-MS/MS analysis; type: ADME, organism-based; settings: in vivo
# Sequence of Stimulator of interferon genes protein (Homo sapiens), Q86WV6 [UNDEFINED MUTATION] (Q86WV6 whole entry, looked up, stated change not applied): as the sequence (Q86WV6 whole entry, looked up, stated change not applied) above
# T3 sequence (Q86WV6 whole entry R71H/G230A/R293Q): as the sequence (Q86WV6 whole entry, looked up, stated change not applied) above, with R71H, G230A, R293Q counted along it
structure (smiles),measurement,setting,value
COc1ccc2c(c1)C(=O)N(c1ccc(C(C)(C)C)c(F)c1)C(c1cc3cc(-c4ccc(C(=O)Nc5ccc(O)c(NS(C)(=O)=O)c5)cc4)ccc3o1)C2C(N)=O (stereo not given),DC50,[1],760 nM
same,inhibition,[2],Active
same,CL/F,[3],163 mL/min/kg
same,inhibition,[4],Active
same,inhibition,[5],Active
same,inhibition,[6],Active
same,inhibition,[7],inactive
same,pIC50,[8],6.96
same,inhibition,[9],Active
same,pIC50,[10],6.92
same,inhibition,[11],Active
same,inhibition,[12],Active
same,inhibition,[13],Active
same,Activity,[14],Active
same,Emax,[15],92%
same,"inhibition at 24 h, 10 µM",[16],34.4%
same,half-life,[17],> 4 h
same,inhibition,[18],Active
same,inhibition,[19],Active
same,inhibition,[20],Active
same,AUC,[21],2020 ng·h/mL
same,Activity,[22],Active
same,Activity,[23],Active
same,half-life at 10 µM,[24],> 1 h
same,half-life,[25],3.3 h

# Reference: ChEMBL document CHEMBL6182913, “Design of Potent Small-Molecule Stimulator of Interferon Gene Inhibitor and Stimulator of Interferon Gene Mutant-Specific Degrader” (J Med Chem, 2025)
